Structures are written as SMILES. “Also recorded” adds a separate entry of the source.

The target in data set [1] is T1, mouse P2X1 receptor (mP2X1) (Mus musculus, UniProt P51576).
T1 construct: expressed in transfected cells; host or cells: Xenopus oocytes (cRNA microinjection)
T1 sequence (P51576 1-399): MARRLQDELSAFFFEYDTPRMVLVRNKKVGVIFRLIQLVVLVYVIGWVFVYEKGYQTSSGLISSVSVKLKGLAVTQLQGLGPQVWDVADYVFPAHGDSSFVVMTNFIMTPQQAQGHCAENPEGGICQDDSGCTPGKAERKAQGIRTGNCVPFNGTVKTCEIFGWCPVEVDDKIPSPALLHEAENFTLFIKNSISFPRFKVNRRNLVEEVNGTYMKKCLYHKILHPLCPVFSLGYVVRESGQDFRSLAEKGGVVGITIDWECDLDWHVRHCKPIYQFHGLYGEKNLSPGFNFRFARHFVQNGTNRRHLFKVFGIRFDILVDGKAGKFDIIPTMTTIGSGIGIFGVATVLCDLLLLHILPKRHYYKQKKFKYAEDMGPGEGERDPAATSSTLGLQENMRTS
In words: Two-electrode voltage clamp assay, recombinant mP2X1 receptor in Xenopus oocytes. It is filed as cell-based. Conditions: 10 μM compound, 2 μM ATP, mean±SEM n≥3 (footnote c), read-out: mP2X1 % inhibitory effect at 10 μM. In a few lines:
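Xenopus oocytes injected with mP2X1 or hP2X3 cRNA; ATP-activated currents recorded by two-electrode voltage clamp at Vh=−70 mV in Ringer's solution (pH 7.5, 18° C.). Compounds applied 20 min before 2 μM ATP; IC50 from Hill plots of ATP-evoked current inhibition, mean±SEM (n≥3).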
For orientation: In two-electrode clamp one electrode senses voltage and the other passes current.

A short description of data set [2]: Metabolic stability in microsomes, mouse. Type of data set: in vitro ADME. As to conditions: 30 min.
Data set [3] is described as follows: Plasma protein binding by rapid equilibrium dialysis, rat. Type of data set: in vitro ADME. Conditions: plasma (50% in PBS), pH 7.4, read-out: Plasma protein binding rate, Rat (converted). The method, then: Plasma protein binding was measured by rapid equilibrium dialysis (RED). A DMSO stock solution of the compounds was prepared at a concentration of 10 mM and diluted to a concentration of […] with 50% plasma in phosphate buffered saline (PBS, pH 7.4). Plasma samples (100 μL) and PBS (300 μL) were added to the sample chamber and the buffer chamber, respectively, after which the RED device was turn on and the samples were incubated in a shaking incubator at 37° C. for 4 hours. After dialysis, 50 μl aliquots were collected from each side of the chamber. 50 μl of blank plasma was added to the buffer sample, and 50 μl of PBS was also added to the plasma sample. 200 μL of acetonitrile containing an internal standard was added to each sample. The samples were centrifuged at 3200 g for 20 minutes at 4° C., and the supernatants were obtained and analyzed by an LC-MS/MS system. The plasma protein binding rate was calculated as follows: Free form (%)=(Buffer chamber/Plasma chamber)×100 Bound form (%)=100−Free form (%).
Background: Equilibrium dialysis compares concentrations on both sides of a semipermeable membrane.

Data set [4] has as its system neuropathic pain (NeP) animal models. In words: Efficacy in neuropathic pain (NeP) animal models, model not specified. It is filed as in vivo, rat. As to the method:
3-1. Evaluation of In Vivo Efficacy
The antiallodynic effects (mechanical allodynia) were evaluated using rats according to a previously reported protocol. In order to evaluate the withdrawal threshold, rats (naive, SNL and CIPN) were placed on a plastic mesh floor of individual plastic cages. The rats were allowed to acclimate to the environment for 30 minutes and examined after intrathecal or intravenous administration to the caudal vein. The control group received the same volume of vehicle (intrathecal administration of saline or DMSO, intravenous administration of DMSO:PEG:PBS=1:6:3 v/v %) as the experimental groups. Evaluation of the mechanical withdrawal threshold was measured in responses to the application of calibrated von Frey filaments (Stoelting, Wood Dale, Ill., USA) to the hind paw of the rats through the holes on the mesh floor underneath the cage using the ‘up and down method’. A series of eight von Frey filaments (0.4, 0.7, 1.2, 2.0, 3.6, 5.5, 8.5, and 15 g) was applied perpendicular to the sole of the hind paw for 5 seconds while the head was bent. Active withdrawal or flinching of the paw was considered as a positive reaction. The absence of response in the rats, when a pressure was applied to 15 g von Frey filament, was used as a cut-off value. Only rats with definite allodynia (i.e., mechanical withdrawal threshold: less than 4 g after SNL or less than 5 g after CIPN) were tested. The rats after termination of the experiments were euthanized through an overdose of sevoflurane. The withdrawal threshold data for the von Frey filament test was calculated as % MPE (maximum possible effect) based on the following Calculation Equation: % MPE=[(Post-drug threshold−Post-injured baseline threshold)/(Cutoff threshold−post-injured baseline threshold)×100]. Dose-response data were analyzed using Scheffe's post hoc test and one-way analysis of variance (ANOVA).

The test system of a further data set is rats. In words: Behavioral test (righting, placing-stepping, pinna and corneal reflexes). It is filed as in vivo, rat. As to conditions: maximum dose, intrathecal or intravenous administration. The method, then:
4-1. Behavioral Efficacy Test Method
Additional rats received the highest doses of drugs used to evaluate behavioral changes at 5, 10, 20, 30, 40, 50, and 60 min after intrathecal or intravenous administration to caudal vein. Motor functions were examined using the righting and placing-stepping reflexes. The righting reflex was evaluated by an immediate coordinated twisting of the body to an upright position when placing the rat horizontally with its back on the table. The placing-stepping reflex was induced by drawing the dorsum of hind paw across the edge of the table. Rats normally attempt to put their paws forward into a position for walking. Pinna and corneal reflexes were also assessed and judged as present or absent. Other abnormal behaviors, such as serpentine movement or tremors, were also evaluated.

`CCCc1nc(Cc2cccc(Oc3ccccc3)c2)c(C)c(C(=O)O)c1O` [Compound 29, 3-Hydroxy-5-methyl-6-(3-phenoxybenzyl)-2-propylisonicotinic acid]: the inhibition at 10 µM in data set [1] was 23.3 ± 4.8%. For the same molecule, the “Metabolic stability, microsomes, Mouse” value in data set [2] came out at 2 % remaining after 30 min. Moreover, the fraction unbound at 4 h, 5 µM in data set [3] is 0.002. The “antiallodynic effect upon intraperitoneal and intravenous administration” value in data set [4] (NeP animal models, i.p. and i.v.) is listed as “no antiallodynic effect; also recorded: no pharmacological activity was observed; also recorded: did not provide an antiallodynic effect”. Further, the “antiallodynic effect upon intramedullary administration” value in data set [4] (NeP rats) is reported as “potent antiallodynic effect”. Moreover, in the data set on rats, the abnormal behavior changes entry is recorded as “no obvious abnormal behavior changes were observed”; the “pinna and corneal reflexes” value is given as “present”; the “righting and position-stepping reflexes” value is “normal”.
Regarding `CCCc1nc(CCc2ccc(OC)cc2)c(C(=O)O)c(C(=O)O)c1O` [Compound 13d, 5-Hydroxy-2-(4-methoxyphenethyl)-6-propylpyridine-3,4-dicarboxylic acid], the inhibition at 10 µM in data set [1] came to 42.8 ± 7.4%. In addition, the “in vivo efficacy in early animal experiments” value in data set [4] (early animal experiments) is “weak in vivo efficacy”.
Regarding `CCCc1nc(Cc2cccc(Oc3ccccc3)c2)c(C)c(C(=O)OC)c1O` [Compound 28, Methyl 3-hydroxy-5-methyl-6-(3-phenoxybenzyl)-2-propylisonicotinate], the “Metabolic stability, microsomes, Mouse” value in data set [2] came out at 35 % remaining after 30 min. Moreover, the fraction unbound at 4 h, 5 µM in data set [3] was 0.675. Further, in the data set on rats, the abnormal behavior changes entry is listed as “no obvious abnormal behavior changes were observed”; the “pinna and corneal reflexes” value is recorded as “present”; the “righting and position-stepping reflexes” value is “normal”.
